Reference: patent US7517986B2, “Tetrahydropyridothiophenes for use in the treatment of cancer” (4SC AG, priority 2004, dated 2009)

Legend:
[1] = test system: RKOp27 colon adenocarcinoma cells arrested by expression of ectopic p27Klp1; test: Alamar Blue cell viability assay, cell cycle specific mode of action, RKOp27 cells arrested by Ponasterone A-induced p27 expression; assay type: cell-based; conditions: Homo sapiens, cells arrested by p27 induced with 10 μM Ponasterone A, 72 hours incubation, 16000 cells per well, read-out: IC50 RKO p27 induced
Experimental: To determine the cell cycle specific mode of action, subclones of RKO colon adenocarcinoma cells (RKOp27 or RKOp21 as described by Schmidt et al. in Oncogene 19, 2423-2429; 2000) are seeded into 96 well flat bottom plates at a density of 16000 cells per well in a volume of 50 μl per well in DMEM growth medium with 10% FCS containing 10 μM Ponasterone A. 24 hours after seeding the 50 μl each of the compound dilutions in DMEM medium are added into each well of the 96 Well plate. Each compound dilution is tested as quadruplicates. Wells containing untreated control cells are filled with 50 μl DMEM medium containing 1% DMSO. The cells are then incubated with the substances for 72 hours at 37° C. in a humidified atmosphere containing 5% carbon dioxide. To determine the viability of the cells, 10 μl of an Alamar Blue solution (Biosource) are added and the fluorescence was measured at an extinction of 544 nm and an emission of 590 nm. For the calculation of the cell viability the emission value from untreated cells is set as 100% viability and the emission rates of treated cells are set in relation to the values of untreated cells. Viabilities are expressed as % values. Viability is compared of proliferating cells grown in the absence of the inducer Ponasterone A, versus viability of cells arrested by the expression of ectopic p27Klp1 induced by Ponasterone A. The data of this experimental setting are summarized in table A (2nd column).

[2] = test system: RKO (RKOp27) human colon adenocarcinoma cells; test: Alamar Blue cell viability assay, anti-proliferative/cytotoxic activity, proliferating (uninduced) RKOp27 cells; assay type: cell-based; conditions: no Ponasterone A, 72 hours incubation, 4000 cells per well, read-out: IC50 RKO p27 uninduced
Experimental: The anti-proliferative/cytotoxic activity of the compounds described herein, can be tested on subclones of RKO (RKOp27) human colon adenocarcinoma cells (Schmidt et al., Oncogene 19, 2423-2429; 2000) using the Alamar Blue cell viability assay (described in O'Brien et al. Eur J Biochem 267, 5421-5426, 2000). The compounds are dissolved as 20 mM solutions in dimethylsulfoxide (DMSO) and subsequently diluted in semi-logarithmic steps. DMSO dilutions are further diluted 1:100 into Dulbecco's modified Eagle's medium (DMEM) containing 10% fetal calf serum to a final concentration twice as much as the final concentration in the test. RKO subclones are seeded into 96 well flat bottom plates at a density of 4000 cells per well in a volume of 50 μl per well. 24 hours after seeding the 50 μl each of the compound dilutions in DMEM medium are added into each well of the 96 Well plate. Each compound dilution is tested as quadruplicates. Wells containing untreated control cells are filled with 50 μl DMEM medium containing 1% DMSO. The cells are then incubated with the substances for 72 hours at 37° C. in a humified atmosphere containing 5% carbon dioxide. To determine the viability of the cells, 10 μl of an Alamar Blue solution (Biosource) are added and the fluorescence was measured at an extinction of 544 nm and an emission of 590 nm. For the calculation of the cell viability the emission value from untreated cells is set as 100% viability and the emission rates of treated cells were set in relation to the values of untreated cells. Viabilities are expressed as % values.
The corresponding IC50 values of the compounds for anti-proliferative/cytotoxic activity are determined from the concentration-effect curves.
Representative IC50 values for anti-proliferation/cytotoxicity determined in the aforementioned assay are described in the table A (1st column), in which the numbers of the compound correspond to the numbers of the examples.

SMILES | IC50 [1] | IC50 [2]
CCOC(=O)N1CCc2c(sc(NC(=O)c3cc4ccccc4s3)c2C#N)C1 [Compound 8, 2-[(1-Benzo[b]thiophen-2-yl-methanoyl)-amino]-3-cyano-4,7-dihydro-5H-thieno[2,3-c]pyridine-6-carboxylic Acid Ethyl Ester] | > 100000 nM | 5000 nM
CCOC(=O)N1CCc2c(sc(NC(=O)c3cccnc3)c2C#N)C1 [Compound 1, N-(6-ethoxycarbonyl-3-cyano-4,5,6,7-tetrahydro-thieno[2,3-c]pyridin-2-yl)-nicotinyl Amide] | > 100000 nM | 500 nM
CCOC(=O)N1CCc2c(sc(NC(=O)c3cccs3)c2C#N)C1 [Compound 7, 3-Cyano-2-[(1-thiophen-2-yl-methanoyl)-amino]-4,7-dihydro-5H-thieno[2,3-c]pyridine-6-carboxylic Acid Ethyl Ester] | > 100000 nM | 2000 nM
CCSC(=O)N1CCc2c(sc(NC(=O)c3cccnc3)c2C#N)C1 [Compound 16, 3-Cyano-2-[(1-pyridin-3-yl-methanoyl)-amino]-4,7-dihydro-5H-thieno[2,3-c]pyridine-6-carbothioic Acid S-ethyl Ester] | > 100000 nM | ≤ 3000 nM
CCCC(=O)N1CCc2c(sc(NC(=O)c3cccnc3)c2C#N)C1 [Compound 14, N-(6-Butanoyl-3-cyano-4,5,6,7-tetrahydro-thieno[2,3-c]pyridin-2-yl)-nicotinyl Amide] | > 100000 nM | ≤ 3000 nM
Cc1ncsc1CCOC(=O)N1CCc2c(sc(NC(=O)c3cccnc3)c2C#N)C1 [Compound 17, 3-Cyano-2-[(1-Pyridin-3-yl-methanoyl)-amino]-4,7-dihydro-5H-thieno[2,3-c]pyridine-6-carboxylic Acid 2-(4-methyl-thiazol-5-yl)-ethyl Ester] | > 100000 nM | ≤ 3000 nM
CCOC(=O)N1CCc2c(sc(NC(=O)c3c(C)noc3-c3ccccc3)c2C#N)C1 [Compound 5, 3-Cyano-2-{[1-(3-methyl-5-phenyl-isoxazol-4-yl)-methanoyl]-amino}-4,7-dihydro-5H-thieno [2,3-c]pyridine-6-carboxylic Acid Ethyl Ester] | > 100000 nM | 2000 nM
CCOC(=O)N1CCc2c(sc(NC(=O)c3ccc4c(c3)OCC4)c2C#N)C1 [Compound 12] | > 100000 nM | ≤ 3000 nM
CCOC(=O)N1CCc2c(sc(NC(=O)C3=Cc4ccccc4OC3)c2C#N)C1 [Compound 6, 2-[(1-2H-Chromen-3-yl-methanoyl)-amino]-3-cyano-4,7-dihydro-5H-thieno[2,3-c]pyridine-6-carboxylic Acid Ethyl Ester] | > 100000 nM | 2000 nM
CCOC(=O)N1CCc2c(sc(NC(=O)c3ccc(C)s3)c2C#N)C1 [Compound 10, 3-Cyano-2-{[1-(5-methyl-thiophen-2-yl)-methanoyl]-amino}-4,7-dihydro-5H-thieno[2,3-c]pyridine-6-carboxylic Acid Ethyl Ester] | > 100000 nM | 200 nM
